Reference: patent US9115117B2, “Substituted piperidine compounds and their use as orexin receptor modulators” (JANSSEN PHARMACEUTICA NV, priority 2013, dated 2015)

Key:
[1] = biological target: human orexin 2 receptor (Homo sapiens (Human), UniProt O43614); assay: Human orexin 2 receptor radioligand binding ([3H]-EMPA); conditions: HEK293 stably expressing human orexin 2 receptor; [3H]-EMPA; apparent Ki; read-out: hOX2 Ki
Experimental: After centrifugation (2K×G, 5 min at 4° C.), the supernatant was aspirated and the pellets frozen and stored at −80° C. […] Each cell pellet from a 15 cm plate was resuspended in 10 mL, stored on ice, and homogenized for 45 sec just prior to addition to the reactions. Competition binding experiments in 96 well polypropylene plates were performed using [^3H]-EMPA (Moraveck Corporation, specific activity=29.6 Ci/mmol), diluted to a 5 nM concentration in PBS (2 nM final concentration). […] The final concentration of DMSO in the reactions is equal to or less than 0.1%. Total and nonspecific binding was determined in the absence and presence of […]. The total volume of each reaction is 200 μL (20 μL of diluted compounds, 80 μL of [^3H]-EMPA diluted in PBS and 100 μL of the cell suspension).
The plates were washed 3 times by aspirating 30 ml PBS through the plates. Plates were dried in 55° C. oven for 60 min, scintillation fluid was added, and the radioactivity was counted on a Topcount (Packard).

[2] = biological target: rat orexin 1 receptor (Rattus norvegicus, UniProt P56718); assay: Rat orexin 1 receptor radioligand binding; conditions: HEK293 cells stably expressing rat orexin 1 receptor; apparent Ki; read-out: rOX1 Ki
Experimental: After centrifugation (2K×G, 5 min at 4° C.), the supernatant was aspirated and the pellets frozen and stored at −80° C. […] Each cell pellet from a 15 cm plate was resuspended in 10 mL, stored on ice, and homogenized for 45 sec prior to addition to the reactions. Competition binding experiments in 96 well polypropylene plates were performed using [^3H]-(1-(5-(2-fluoro-phenyl)-2-methyl-thiazol-4-yl)-1-((S)-2-(5-phenyl-(1,3,4)oxadiazol-2-ylmethyl)-pyrrolidin-1-yl)-methanone) (Moraveck Corporation, specific activity=35.3 Ci/mmol), diluted to a 10 nM concentration in PBS (4 nM final). […] The final concentration of DMSO in the reactions is equal to or less than 0.1%. Total and nonspecific binding was determined in the absence and presence of 10 μM almorexant. The total volume of each reaction is 200 μL (20 μL of diluted compounds, 80 μL of [3H]-(1-(5-(2-fluoro-phenyl)-2-methyl-thiazol-4-yl)-1-((S)-2-(5-phenyl-(1,3,4)oxadiazol-2-ylmethyl)-pyrrolidin-1-yl)-methanone) diluted in PBS and 100 μL of the cell suspension). […] The plates were washed 3 times by aspirating 30 ml PBS through the plates. Plates were dried in 55° C. oven for 60 min, scintillation fluid was added, and the radioactivity was counted on a Topcount (Packard).

Sequence of human orexin 2 receptor (O43614 whole entry): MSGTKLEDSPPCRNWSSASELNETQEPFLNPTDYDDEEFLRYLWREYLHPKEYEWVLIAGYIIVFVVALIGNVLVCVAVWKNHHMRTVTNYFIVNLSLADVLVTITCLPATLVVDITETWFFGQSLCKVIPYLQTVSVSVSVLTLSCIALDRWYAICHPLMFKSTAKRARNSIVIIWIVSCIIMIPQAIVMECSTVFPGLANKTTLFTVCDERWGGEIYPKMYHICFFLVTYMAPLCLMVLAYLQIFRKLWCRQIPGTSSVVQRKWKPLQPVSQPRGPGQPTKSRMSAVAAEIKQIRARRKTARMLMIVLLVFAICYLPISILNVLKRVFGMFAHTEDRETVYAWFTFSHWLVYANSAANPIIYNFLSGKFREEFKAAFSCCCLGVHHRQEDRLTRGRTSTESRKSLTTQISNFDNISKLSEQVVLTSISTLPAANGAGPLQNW

Ki [1] [µM]	Ki [2] [µM]	Structure (SMILES)
1.3	0.373	COc1c(F)cccc1C(=O)N1CCC[C@@H](Nc2nc3cc(Cl)ccc3o2)[C@@H]1C (racemic) [Example 47, (±)-trans-(3-((5-chlorobenzo[d]oxazol-2-yl)amino)-2-methylpiperidin-1-yl)(3-fluoro-2-methoxyphenyl)methanone]
0.489	–	CCOc1ccccc1C(=O)N1CCC[C@@H](Nc2nc3cc(Cl)ccc3o2)[C@@H]1C (racemic) [Example 46, (±)-trans-(3-((5-chlorobenzo[d]oxazol-2-yl)amino)-2-methylpiperidin-1-yl)(2-ethoxyphenyl)methanone]
1.3	1.1	COc1c(F)cccc1C(=O)N1CCC[C@@H](Nc2cnc3ccccc3n2)[C@H]1C (racemic) [Example 64, (±)-cis-(3-fluoro-2-methoxyphenyl)(2-methyl-3-(quinoxalin-2-ylamino)piperidin-1-yl)methanone]
> 10	> 10	C[C@@H]1[C@H](Nc2nc3cc(Cl)ccc3o2)CCCN1C(=O)c1ccccc1-n1nccn1 (racemic) [Example 60, (±)-cis-((2-(2H-1,2,3-triazol-2-yl)phenyl)(3-((5-chlorobenzo[d]oxazol-2-yl)amino)-2-methylpiperidin-1-yl)methanone]
0.286	–	C[C@H]1[C@H](Nc2ccc(Cl)cn2)CCCN1C(=O)c1ccccc1-n1nccn1 (racemic) [Example 32, (±)-trans-(2-(2H-1,2,3-triazol-2-yl)phenyl)(3-((5-chloropyridin-2-yl)amino)-2-methylpiperidin-1-yl)methanone]
2.7	–	COc1c(F)cccc1C(=O)N1CCC[C@@H](Nc2nccc(-c3ccccc3)n2)[C@@H]1C (racemic) [Example 52, (±)-trans-(3-fluoro-2-methoxyphenyl)(2-methyl-3-((4-phenylpyrimidin-2-yl)amino)piperidin-1-yl)methanone]
0.508	–	Cc1cnc(N[C@@H]2CCCN(C(=O)c3ccccc3-n3nccn3)[C@H]2C)nc1 (racemic) [Example 31, (±)-trans-(2-(2H-1,2,3-triazol-2-yl)phenyl)(2-methyl-3-((5-methylpyrimidin-2-yl)amino)piperidin-1-yl)methanone]
3.9	0.496	COc1c(F)cccc1C(=O)N1CCC[C@@H](Nc2ccc(C(F)(F)F)cn2)[C@@H]1C (racemic) [Example 28, (±)-trans-(3-fluoro-2-methoxyphenyl)(2-methyl-3-((5-(trifluoromethyl)pyridin-2-yl)amino)piperidin-1-yl)methanone]
5.7	1.8	COc1c(F)cccc1C(=O)N1CCC[C@@H](Nc2nc3cc(Cl)ccc3o2)[C@H]1C (racemic) [Example 62, (±)-cis-(3-((5-chlorobenzo[d]oxazol-2-yl)amino)-2-methylpiperidin-1-yl)(3-fluoro-2-methoxyphenyl)methanone]
0.324	–	C[C@H]1[C@H](Nc2ccc(C(F)(F)F)cn2)CCCN1C(=O)c1cc(F)ccc1-n1nccn1 (racemic) [Example 24, (±)-trans-(5-fluoro-2-(2H-1,2,3-triazol-2-yl)phenyl)(2-methyl-3-((5-(trifluoromethyl)pyridin-2-yl)amino)piperidin-1-yl)methanone]
0.228	–	Cc1ccc(-c2ncccn2)c(C(=O)N2CCC[C@@H](Nc3cc(C)nc(C(F)(F)F)n3)[C@@H]2C)c1 (racemic) [Example 7, (±)-trans-(5-methyl-2-(pyrimidin-2-yl)phenyl)(2-methyl-3-((6-methyl-2-(trifluoromethyl)pyrimidin-4-yl)amino)piperidin-1-yl)methanone]
0.353	0.396	COc1c(F)cccc1C(=O)N1CCC[C@@H](Nc2cnc3ccccc3n2)[C@@H]1C (racemic) [Example 50, (±)-trans-(3-fluoro-2-methoxyphenyl)(2-methyl-3-(quinoxalin-2-ylamino)piperidin-1-yl)methanone]
0.68	–	CCOc1ccc(C)nc1C(=O)N1CCC[C@@H](Nc2ccc(C(F)(F)F)cn2)[C@@H]1C (racemic) [Example 16, (±)-trans-(3-ethoxy-6-methylpyridin-2-yl)(2-methyl-3-((5-(trifluoromethyl)pyridin-2-yl)amino)piperidin-1-yl)methanone]
> 10	–	C[C@@H]1[C@H](Nc2cnc3ccccc3n2)CCCN1C(=O)c1ccccc1-n1nccn1 (racemic) [Example 63, (±)-cis-(2-(2H-1,2,3-triazol-2-yl)phenyl)(2-methyl-3-(quinoxalin-2-ylamino)piperidin-1-yl)methanone]

Second part, the molecule before the results:

Structure (SMILES)	Ki [1] [µM]	Ki [2] [µM]
C[C@H]1[C@H](Nc2nccc(-c3ccccc3)n2)CCCN1C(=O)c1ccccc1-n1nccn1 (racemic) [Example 51, (±)-trans-(2-(2H-1,2,3-triazol-2-yl)phenyl)(2-methyl-3-((4-phenylpyrimidin-2-yl)amino)piperidin-1-yl)methanone]	2.1	–
CCOc1ccccc1C(=O)N1CCC[C@@H](Nc2nccc(-c3ccccc3)n2)[C@@H]1C (racemic) [Example 53, (±)-trans-(2-ethoxyphenyl)(2-methyl-3-((4-phenylpyrimidin-2-yl)amino)piperidin-1-yl)methanone]	0.058	–
CCOc1ccccc1C(=O)N1CCC[C@@H](Nc2ccc(C(F)(F)F)cn2)[C@H]1C (racemic) [Example 55, (±)-cis-(2-ethoxyphenyl)(2-methyl-3-((5-(trifluoromethyl)pyridin-2-yl)amino)piperidin-1-yl)methanone]	> 10	1.2
C[C@H]1[C@H](Nc2ccc(C(F)(F)F)cn2)CCCN1C(=O)c1ncccc1-n1nccn1 (racemic) [Example 21, (±)-trans-(3-(2H-1,2,3-triazol-2-yl)pyridin-2-yl)(2-methyl-3-((5-(trifluoromethyl)pyridin-2-yl)amino)piperidin-1-yl)methanone]	0.595	–
COc1c(F)cccc1C(=O)N1CCC[C@@H](Nc2nccc(-c3ccccc3)n2)[C@H]1C (racemic) [Example 67, (±)-cis-(3-fluoro-2-methoxyphenyl)(2-methyl-3-((4-phenylpyrimidin-2-yl)amino)piperidin-1-yl)methanone]	> 10	–
Cc1ccc(C(=O)N2CCC[C@H](Nc3ccc(C(F)(F)F)cn3)[C@H]2C)c(-n2nccn2)c1 [Example 15, (4-methyl-2-(2H-1,2,3-triazol-2-yl)phenyl)((2R,3S)-2-methyl-3-((5-(trifluoromethyl)pyridin-2-yl)amino)piperidin-1-yl)methanone]	> 10	8.2
C[C@H]1[C@H](Nc2ccc(Cl)cn2)CCCN1C(=O)c1ccccc1-n1nccn1 [Example 100, (2-(2H-1,2,3-triazol-2-yl)phenyl)((2S,3R)-3-((5-chloropyridin-2-yl)amino)-2-methylpiperidin-1-yl)methanone]	0.207	–
CCOc1ccccc1C(=O)N1CCC[C@@H](Nc2nc3cc(Cl)ccc3o2)[C@H]1C (racemic) [Example 61, (±)-cis-(3-((5-chlorobenzo[d]oxazol-2-yl)amino)-2-methylpiperidin-1-yl)(2-ethoxyphenyl)methanone]	2.5	–
CCOc1ccccc1C(=O)N1CCC[C@@H](Nc2nccc(-c3ccccc3)n2)[C@H]1C (racemic) [Example 68, (±)-cis-(2-ethoxyphenyl)(2-methyl-3-((4-phenylpyrimidin-2-yl)amino)piperidin-1-yl)methanone]	> 10	–
C[C@H]1[C@H](Nc2ccccn2)CCCN1C(=O)c1ccccc1-n1nccn1 (racemic) [Example 36, (±)-trans-(2-(2H-1,2,3-triazol-2-yl)phenyl)(2-methyl-3-(pyridin-2-ylamino)piperidin-1-yl)methanone]	1.5	0.69
C[C@@H]1[C@H](Nc2nccc(-c3ccccc3)n2)CCCN1C(=O)c1ccccc1-n1nccn1 (racemic) [Example 66, (±)-cis-(2-(2H-1,2,3-triazol-2-yl)phenyl)(2-methyl-3-((4-phenylpyrimidin-2-yl)amino)piperidin-1-yl)methanone]	1.8	–
C[C@H]1[C@H](Nc2cnc3ccccc3n2)CCCN1C(=O)c1ccccc1-n1nccn1 (racemic) [Example 48, (±)-trans-(2-(2H-1,2,3-triazol-2-yl)phenyl)(2-methyl-3-(quinoxalin-2-ylamino)piperidin-1-yl)methanone]	0.096	–
C[C@H]1[C@H](Nc2ncc3ccccc3n2)CCCN1C(=O)c1ccccc1-n1nccn1 (racemic) [Example 39, (±)-trans-(2-(2H-1,2,3-triazol-2-yl)phenyl)(2-methyl-3-(quinazolin-2-ylamino)piperidin-1-yl)methanone]	0.189	–
